{
  "source": "patent US20030109548A1",
  "about": "“Compositions and methods of treating iron excess” (priority 2001, published 2003)",
  "key": {"[1]": {"assay": "Micelle formation upon mixing with FeCl3 (brightfield microscopy)", "format": "physicochemical", "conditions": "0.2 M in ethanol mixed with 0.2 M FeCl3 in ethanol, 3/1 ratio, reduced to half volume", "description": "Micelle formation. […] Also, synthesized pseudan IX, 0.2 M in ethanol, was mixed with 0.2 M FeCl3 in ethanol in a 3/1 ratio. Following reduction to half the volume using a nitrogen bubbler, micelles were observed as above. An Olympus BX-60 microscope and an Optronics DEI 750 camera were used."}, "[2]": {"conditions": "isolated from filtrates of 4 to 6 week old culture of P. aeruginosa; cited from earlier work"}},
  "data": [
    {"smiles": "CCCCCCCCCc1cc(O)c2ccccc2n1", "note": "[pseudan IX, 4-hydroxy-2-nonylquinoline]", "values": [
      {"measurement": "micelle formation with iron", "setting": "[1]", "value": "Pink micelles, albeit smaller, are also evident"},
      {"measurement": "antibiotic activity", "setting": "[2]", "value": "shown to exhibit antibiotic activity"}
    ]}
  ]
}
